Here are results for six molecules from patent US20230183292A1, “IMMUNOMODULATORS” (priority 2020, published 2023).

pIC50: −log10 of the molar value. Like-named read-outs stand apart in the source and are kept apart here. Starred links: 1 amine or outer side, 2 acyl side, 3 side chain; linkers in the order of their positions; H or OH if unused. Positions of bridges follow the written chain, without caps; N, C: chain ends. Non-standard residues stand in square brackets, D forms with d. Residues, ends and D or L forms follow the SMILES beside them. *: point of attachment. X2 = C[C@H](CCC(=O)NCCCN(CCCCNC(=O)CC[C@@H](C)[C@@H]1CC[C@H]2[C@@H]3[C@H](O)C[C@@H]4C[C@H](O)CC[C@]4(C)[C@H]3C[C@H](O)[C@@]21C)*)[C@H]1CC[C@H]2[C@@H]3[C@H](O)C[C@@H]4C[C@H](O)CC[C@]4(C)[C@H]3C[C@H](O)[C@]12C; X15 = C[C@H](CCC(=O)NCCCCNc1c(*)c(=O)c1=O)[C@H]1CC[C@H]2[C@@H]3[C@H](O)C[C@@H]4C[C@H](O)CC[C@]4(C)[C@H]3C[C@H](O)[C@]12C; X20 = CC(C)CCC[C@@H](C)[C@H]1CC[C@H]2[C@@H]3CC[C@H]4C[C@H](NC[C@H](N[*:1])C(=O)[*:2])CC[C@]4(C)[C@H]3CC[C@]12C; X5 = CC(C)CCC[C@@H](C)[C@H]1CC[C@H]2[C@@H]3CC[C@H]4C[C@@H](NC[C@H](N[*:1])C(=O)[*:2])CC[C@]4(C)[C@H]3CC[C@]12C; X17 = C[C@H](CCC(=O)O)[C@H]1CC[C@H]2[C@@H]3CC[C@@H]4CC(NC[C@H](N[*:1])C(=O)[*:2])CC[C@]4(C)[C@H]3CC[C@]12C; Cholyl = C[C@H](CCC(=O)*)[C@H]1CC[C@H]2[C@@H]3[C@H](O)C[C@@H]4C[C@H](O)CC[C@]4(C)[C@H]3C[C@H](O)[C@]12C; Trp(1-CH2CO) = O=C([C@H](Cc1cn(CC(=O)[*:3])c2ccccc12)N[*:1])[*:2]; Trp(1-CH2COOH) = N[C@@H](Cc1cn(CC(=O)O)c2ccccc12)C(=O)O; Hyp = O=C(O)[C@@H]1C[C@@H](O)CN1; X12 = O=c1c([*:1])c([*:2])c1=O; NMeNle = CCCC[C@H](NC)C(=O)O; NMeA = CN[C@@H](C)C(=O)O; Dab = NCC[C@H](N)C(=O)O; Dap = NC[C@H](N)C(=O)O

The target in this test is T1, PD-1/PD-L1 (Homo sapiens, UniProt Q9NZQ7).
T1 construct: TVMV protease site (C); made in house; host or cells: HEK293T cells
In words: PD-1/PD-L1 Homogenous Time-Resolved Fluorescence (HTRF) binding assay. As to conditions: PD-1-Ig 20 nM. In outline: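 Inhibitors pre-incubated 15 min with PD-L1-His (10 nM final) in dPBS, 0.1% BSA, 0.05% Tween-20, then 15 min with PD-1-Ig (20 nM final). Eu-cryptate anti-Ig (1 nM) and APC anti-His (20 nM) added, 30 min equilibration; HTRF 665/620 nm ratio. Human ECD proteins from HEK293T.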

Setting [1] is: PD-L1-His 10 nM, read-out: HTRF IC50.

T1 sequence (Q9NZQ7 18-239): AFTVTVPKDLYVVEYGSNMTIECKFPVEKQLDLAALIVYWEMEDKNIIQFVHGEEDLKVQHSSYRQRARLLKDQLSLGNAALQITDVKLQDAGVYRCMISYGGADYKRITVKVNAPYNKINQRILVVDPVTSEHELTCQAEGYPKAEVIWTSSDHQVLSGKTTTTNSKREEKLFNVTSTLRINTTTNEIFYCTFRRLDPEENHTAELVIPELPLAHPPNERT

A word on the pIC50: it is −log10 of the IC50, conventionally taken in molar units. Regarding `CCCC[C@H]1C(=O)N(C)[C@@H](CCCC)C(=O)N[C@@H](CC(C)C)C(=O)N[C@H](C(=O)NCC(N)=O)CSCC(=O)N[C@@H](Cc2ccc(O)cc2)C(=O)N(C)[C@@H](C)C(=O)N[C@@H](CC(N)=O)C(=O)N2CCC[C@H]2C(=O)N[C@@H](CNC2CC[C@@]3(C)[C@H](CC[C@@H]4[C@@H]3CC[C@]3(C)[C@@H]([C@H](C)CCC(=O)O)CC[C@@H]43)C2)C(=O)N[C@@H](CC(C)C)C(=O)N2C[C@H](O)C[C@H]2C(=O)N[C@@H](Cc2c[nH]c3ccccc23)C(=O)N[C@@H](CCN)C(=O)N[C@@H](Cc2cn(CC(=O)O)c3ccccc23)C(=O)N1C` (stereo partly drawn) [Example 3007] ({CH2CO}-Y[NMeA]NP[X17]L[Hyp]W[Dab][Trp(1-CH2COOH)][NMeNle][NMeNle]LCG-NH2; thioether N-14), under setting [1], the pIC50 was 7.92. Consider `CCCC[C@H]1C(=O)N(C)[C@@H](CCCC)C(=O)N[C@@H](CC(C)C)C(=O)N[C@H](C(=O)NCC(N)=O)CSCC(=O)N[C@@H](Cc2ccc(O)cc2)C(=O)N(C)[C@@H](C)C(=O)N[C@@H](CC(N)=O)C(=O)N2CCC[C@H]2C(=O)N[C@@H](CN[C@H]2CC[C@@]3(C)[C@@H](CC[C@@H]4[C@@H]3CC[C@]3(C)[C@@H]([C@H](C)CCCC(C)C)CC[C@@H]43)C2)C(=O)N[C@@H](CC(C)C)C(=O)N2C[C@H](O)C[C@H]2C(=O)N[C@@H](Cc2c[nH]c3ccccc23)C(=O)N[C@@H](CCN)C(=O)N[C@@H](Cc2cn(CC(=O)O)c3ccccc23)C(=O)N1C` [Example 3008] ({CH2CO}-Y[NMeA]NP[X5]L[Hyp]W[Dab][Trp(1-CH2COOH)][NMeNle][NMeNle]LCG-NH2; thioether N-14), for which, under setting [1], the pIC50 was 7.04. Regarding `CCCC[C@H]1C(=O)N(C)[C@@H](CCCC)C(=O)N[C@@H](CC(C)C)C(=O)N[C@H](C(=O)NCC(N)=O)CSCC(=O)N[C@@H](Cc2ccc(O)cc2)C(=O)N(C)[C@@H](C)C(=O)N[C@@H](CC(N)=O)C(=O)N2CCC[C@H]2C(=O)N[C@@H](CN[C@@H]2CC[C@@]3(C)[C@@H](CC[C@@H]4[C@@H]3CC[C@]3(C)[C@@H]([C@H](C)CCCC(C)C)CC[C@@H]43)C2)C(=O)N[C@@H](CC(C)C)C(=O)N2C[C@H](O)C[C@H]2C(=O)N[C@@H](Cc2c[nH]c3ccccc23)C(=O)N[C@@H](CCN)C(=O)N[C@@H](Cc2cn(CC(=O)O)c3ccccc23)C(=O)N1C` [Example 3009] ({CH2CO}-Y[NMeA]NP[X20]L[Hyp]W[Dab][Trp(1-CH2COOH)][NMeNle][NMeNle]LCG-NH2; thioether N-14), under “HTRF IC50, PD-L1-His 10 nM”, the negative-log IC50 (pIC50) was 6.89. As for `CCCC[C@H]1C(=O)N(C)[C@@H](CCCC)C(=O)N[C@@H](CC(C)C)C(=O)N[C@H](C(=O)NCC(N)=O)CSCC(=O)N[C@@H](Cc2ccc(O)cc2)C(=O)N(C)[C@@H](C)C(=O)N[C@@H](CC(N)=O)C(=O)N2CCC[C@H]2C(=O)N[C@@H](CNc2c(NCCCCNC(=O)CC[C@@H](C)[C@H]3CC[C@H]4[C@@H]5[C@H](O)C[C@@H]6C[C@H](O)CC[C@]6(C)[C@H]5C[C@H](O)[C@]34C)c(=O)c2=O)C(=O)N[C@@H](CC(C)C)C(=O)N2C[C@H](O)C[C@H]2C(=O)N[C@@H](Cc2c[nH]c3ccccc23)C(=O)N[C@@H](CCNc2c(NCCCCNC(=O)CC[C@@H](C)[C@H]3CC[C@H]4[C@@H]5[C@H](O)C[C@@H]6C[C@H](O)CC[C@]6(C)[C@H]5C[C@H](O)[C@]34C)c(=O)c2=O)C(=O)N[C@@H](Cc2cn(CC(=O)O)c3ccccc23)C(=O)N1C` [Example 5001] ({CH2CO}-Y[NMeA]NP[Dap](X15)L[Hyp]W[Dab](X15)[Trp(1-CH2COOH)][NMeNle][NMeNle]LCG-NH2; thioether N-14; N-terminus assumed), the pIC50 under setting [1] was 9.15.

As to `CCCC[C@H]1C(=O)N(C)[C@@H](CCCC)C(=O)N[C@@H](CC(C)C)C(=O)N[C@H](C(=O)NCC(N)=O)CSCC(=O)N[C@@H](Cc2ccc(O)cc2)C(=O)N(C)[C@@H](C)C(=O)N[C@@H](CC(N)=O)C(=O)N2CCC[C@H]2C(=O)N[C@H]2CNc3c(c(=O)c3=O)NCC[C@H](NC(=O)[C@H](Cc3c[nH]c4ccccc34)NC(=O)[C@@H]3C[C@@H](O)CN3C(=O)[C@H](CC(C)C)NC2=O)C(=O)N[C@@H](Cc2cn(CC(=O)N(CCCCNC(=O)CC[C@@H](C)[C@@H]3CC[C@H]4[C@@H]5[C@H](O)C[C@@H]6C[C@H](O)CC[C@]6(C)[C@H]5C[C@H](O)[C@@]43C)CCCNC(=O)CC[C@@H](C)[C@H]3CC[C@H]4[C@@H]5[C@H](O)C[C@@H]6C[C@H](O)CC[C@]6(C)[C@H]5C[C@H](O)[C@]34C)c3ccccc23)C(=O)N1C` [Example 6001] ({CH2CO}-Y[NMeA]NP[Dap]L[Hyp]W[Dab][Trp(1-CH2CO)](X2)[NMeNle][NMeNle]LCG-NH2; linker 5-9 via X12; thioether N-14), the pIC50 under setting [1] is 6.07. Still for that read-out and setting: the value for `CCCC[C@H]1C(=O)N(C)[C@@H](CCCC)C(=O)N[C@@H](CC(C)C)C(=O)N[C@H](C(=O)NCC(N)=O)CSCC(=O)N[C@@H](Cc2ccc(O)cc2)C(=O)N(C)[C@@H](C)C(=O)N[C@@H](CC(N)=O)C(=O)N2CCC[C@H]2C(=O)N[C@@H](CNC(=O)CC[C@@H](C)[C@H]2CC[C@H]3[C@@H]4[C@H](O)C[C@@H]5C[C@H](O)CC[C@]5(C)[C@H]4C[C@H](O)[C@]23C)C(=O)N[C@@H](CC(C)C)C(=O)N2C[C@H](O)C[C@H]2C(=O)N[C@@H](Cc2c[nH]c3ccccc23)C(=O)N[C@@H](CCNC(=O)CC[C@@H](C)[C@H]2CC[C@H]3[C@@H]4[C@H](O)C[C@@H]5C[C@H](O)CC[C@]5(C)[C@H]4C[C@H](O)[C@]23C)C(=O)N[C@@H](Cc2cn(CC(=O)N(CCCCNC(=O)CC[C@@H](C)[C@@H]3CC[C@H]4[C@@H]5[C@H](O)C[C@@H]6C[C@H](O)CC[C@]6(C)[C@H]5C[C@H](O)[C@@]43C)CCCNC(=O)CC[C@@H](C)[C@H]3CC[C@H]4[C@@H]5[C@H](O)C[C@@H]6C[C@H](O)CC[C@]6(C)[C@H]5C[C@H](O)[C@]34C)c3ccccc23)C(=O)N1C` [Example 7001] ({CH2CO}-Y[NMeA]NP[Dap](Cholyl)L[Hyp]W[Dab](Cholyl)[Trp(1-CH2CO)](X2)[NMeNle][NMeNle]LCG-NH2; thioether N-14) was 8.70.
